Measurements reported in patent US9994594B2, “Inhibitors of arginase and their therapeutic applications” (MARS, INCORPORATED, priority 2010, dated 2018).
Counter-ions that a name gives are not always drawn.

Assays:
MDSC = details: tumor bearing mice; cited from earlier work
[1] = system: experimental autoimmune encephalomyelitis (EAE); details: compared with control animals; cited from earlier work
penile erectile response = assay: Erectile dysfunction efficacy model: penile erectile response in vivo
Experimental: As described hereinabove, the compounds according to the invention are useful in the treatment and prevention of a variety of disorders and conditions that are affected by levels of nitric oxide (NO) regulated, in part, by arginase enzymes. The compounds are assessed for efficacy in such treatment and prevention by their performances in standardized in vivo tests. In vivo models to assess efficacy are developed for this purpose as described below.
The inventive compounds are candidate therapeutics for treating ED, as assessed by measurements of penile erectile response according to a protocol described by Wingard C, Fulton J, and Husain S, J Sex Med 4: 348-363, 2007.

bacterial arginase = details: H. pylori; cited from earlier work
central airways = details: murine chronic model; cited from earlier work
human arginase I (ARG I) = molecular target: T1, human arginase I (ARG I) (Homo sapiens, UniProt P05089); assay: Inhibition of arginase I, spectrophotometric urea assay at 530 nm; format: biochemical; details: Formula I compounds, Table 2; read-out: Potency (ARG I)
T1 sequence (P05089 1-322): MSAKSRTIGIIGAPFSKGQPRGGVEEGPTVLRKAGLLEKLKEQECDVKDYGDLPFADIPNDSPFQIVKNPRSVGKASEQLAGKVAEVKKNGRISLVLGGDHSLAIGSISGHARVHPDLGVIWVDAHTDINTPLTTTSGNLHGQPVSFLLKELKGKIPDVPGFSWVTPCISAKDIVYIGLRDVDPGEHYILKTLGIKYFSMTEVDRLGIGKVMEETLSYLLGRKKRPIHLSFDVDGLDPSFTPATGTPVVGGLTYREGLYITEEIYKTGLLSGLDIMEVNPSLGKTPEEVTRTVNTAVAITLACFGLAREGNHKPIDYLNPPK
Summary of the method: (§1)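 IC50 was derived by regression of OD530 normalized to uninhibited-enzyme controls against log concentration. Urea from 60-min, 37 °C turnover of L-arginine with manganese sulfate was detected after acid o-phthaldialdehyde/primaquine quench and 10 min colour development. Arginase I and II came from 100 ng/ml stocks in pH 7.4 phosphate with ovalbumin.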

arginase II (ARG II) = molecular target: T2, arginase II (ARG II) (Homo sapiens, UniProt P78540); assay: Inhibition of arginase II, spectrophotometric urea assay at 530 nm; format: biochemical; details: Formula I compounds, Table 2; read-out: Potency (ARG II)
T2 sequence (P78540 23-354): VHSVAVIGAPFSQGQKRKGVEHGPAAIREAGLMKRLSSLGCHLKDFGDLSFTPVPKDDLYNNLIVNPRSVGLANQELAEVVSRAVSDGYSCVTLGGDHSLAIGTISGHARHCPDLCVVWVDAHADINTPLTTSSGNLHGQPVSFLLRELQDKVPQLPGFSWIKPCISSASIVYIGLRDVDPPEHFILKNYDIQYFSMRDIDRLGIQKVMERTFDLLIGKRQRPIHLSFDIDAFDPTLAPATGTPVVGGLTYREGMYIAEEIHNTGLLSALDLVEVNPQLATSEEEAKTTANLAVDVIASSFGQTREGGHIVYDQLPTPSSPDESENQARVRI
Summary of the method: as §1

[2] = spontaneously hypertensive animals; cited from earlier work

IC50 (human arginase I (ARG I)) [nM] | IC50 (arginase II (ARG II)) [nM] | SMILES | also measured
 |  | O=c1[nH]cc(F)c(=O)[nH]1 [5-Fluorouracil] | MDSC immunesuppression (MDSC): eliminates MDSC immunesuppression; tumor growth (MDSC): delayed tumor growth
 |  | NC(CCCCB(O)O)C(=O)O (stereo not drawn) [ABH, amino-6-boronohexanoic acid] | severity of EAE [1]: much milder form of EAE than in control animals
 |  | N[C@@](CCCCB(O)O)(CCN1CCCCC1)C(=O)O [Enantiomer of Ex. 13] | Effect: increased erectile response relative to baseline (penile erectile response; @ 2.5 V stimulation): 0 (0 <10%); eliciting erectile responses in vivo (penile erectile response; in words): is not
 |  | NC(=NCCC[C@H](N)C(=O)O)NO [NOHA] | CD3 expression on T-cells (bacterial arginase): reestablished CD3 expression on T-cells; production of NO by macrophages (bacterial arginase): enhanced production of NO by macrophages
 |  | N[C@@H](CSCCB(O)O)C(=O)O [S-(2-boronoethyl)-L-cysteine] | methacholine induced responsiveness of the central airways (central airways): attenuated
0.1 to 250 | 0.1 to 250 | CNC(CCCCB(O)O)(CC[C@@H]1CCCN1)C(=O)O (stereo partly drawn) [compound 144, 6-borono-2-(methylamino)-2-(2-((S)-pyrrolidin-2-yl)ethyl)hexanoic acid dihydrochloride] | 
1000 to 2000 | 1000 to 2000 | O=C(O)C(CCCCB(O)O)NCc1ccc(Cl)cc1 (stereo not drawn) [compound 145, 6-borono-2-(4-chlorobenzylamino)hexanoic acid hydrochloride] | 
1000 to 2000 | 2000 to 5000 | CNC(CCCCB(O)O)C(=O)O (stereo not drawn) [compound 146, 6-borono-2-(methylamino)hexanoic acid hydrochloride] | 
0.1 to 250 | 251 to 1000 | NC(CCCCB(O)O)(CCCN1CCCCC1)C(=O)O (stereo not drawn) [compound 147, 2-amino-6-borono-2-(3-(piperidin-1-yl)propyl)hexanoic acid dihydrochloride] | 
0.1 to 250 | 0.1 to 250 | CNC(CCCCB(O)O)(CCCN1CCCCC1)C(=O)O (stereo not drawn) [compound 148, 6-borono-2-(methylamino)-2-(3-(piperidin-1-yl)propyl)hexanoic acid dihydrochloride] | 
0.1 to 250 | 0.1 to 250 | CNC(CCCCB(O)O)(CCN1CCCCC1)C(=O)O (stereo not drawn) [compound 149, 6-borono-2-(methylamino)-2-(2-(piperidin-1-yl)ethyl)hexanoic acid] | 
 |  | Nc1ccn([C@@H]2O[C@H](CO)[C@@H](O)C2(F)F)c(=O)n1 [gemcitabine] | MDSC immunesuppression (MDSC): eliminates MDSC immunesuppression; tumor growth (MDSC): delayed tumor growth
 |  | N=C(NO)NCC[C@H](N)C(=O)O [nor-NOHA, N^ω-hydroxy-nor-L-arginine] | blood pressure [2]: lowered blood pressure; vascular response of resistance vessels to blood flow and pressure [2]: improved the vascular response of resistance vessels to blood flow and pressure
